Experiments:
iGABASnFR1 = iGABASnFR1 (Pseudomonas fluorescens, UniProt A0A1B3D787, F126L/N285A); assay: biochemical; assay type: binding
Description: (§1) The fluorescence data was fitted to the Hill function in GraphPad Prism to determine affinity values.

iGABASnFR2n = iGABASnFR2n (Pseudomonas fluorescens, UniProt A0A1B3D787, F126L/F129H/N285A/S124A); assay: biochemical; assay type: binding
Chain of iGABASnFR2n (A0A1B3D787 27-341, stated change not applied): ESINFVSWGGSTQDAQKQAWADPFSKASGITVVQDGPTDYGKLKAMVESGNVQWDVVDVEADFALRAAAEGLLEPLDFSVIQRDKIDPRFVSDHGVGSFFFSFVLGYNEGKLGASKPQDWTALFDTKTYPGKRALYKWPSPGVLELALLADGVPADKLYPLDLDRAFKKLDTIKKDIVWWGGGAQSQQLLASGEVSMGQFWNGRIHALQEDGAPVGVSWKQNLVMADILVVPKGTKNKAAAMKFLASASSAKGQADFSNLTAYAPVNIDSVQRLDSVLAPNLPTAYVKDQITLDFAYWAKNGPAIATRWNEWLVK
Chain of iGABASnFR2n (P42212 whole entry Y145W/R168P partner): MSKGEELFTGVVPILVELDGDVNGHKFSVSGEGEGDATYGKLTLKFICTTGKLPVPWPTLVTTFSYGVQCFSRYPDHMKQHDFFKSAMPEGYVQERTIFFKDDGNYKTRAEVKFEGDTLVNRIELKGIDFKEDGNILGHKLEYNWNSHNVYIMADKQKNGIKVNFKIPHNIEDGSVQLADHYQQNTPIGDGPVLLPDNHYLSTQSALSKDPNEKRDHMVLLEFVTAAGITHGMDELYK
Description: as §1

Chain of iGABASnFR1 (A0A1B3D787 27-341, stated change not applied): as the sequence (A0A1B3D787 27-341, stated change not applied) above
Chain of iGABASnFR1 (P42212 with tags, fused parts or gaps S30R/Y39N/F64L/F99S/N105T/Y145W partner): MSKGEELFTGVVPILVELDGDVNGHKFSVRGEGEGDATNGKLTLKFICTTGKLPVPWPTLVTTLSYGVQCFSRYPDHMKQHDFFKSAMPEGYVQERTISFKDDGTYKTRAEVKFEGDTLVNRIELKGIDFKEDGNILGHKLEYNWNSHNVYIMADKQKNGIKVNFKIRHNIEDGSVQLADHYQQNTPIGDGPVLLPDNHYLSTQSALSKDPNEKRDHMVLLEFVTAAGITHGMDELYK

Compound	EC50 (iGABASnFR1) [µM]	EC50 (iGABASnFR2n) [µM]
N[C@@H](CO)C(=O)O [serine]	50.9	5520
CC(C)[C@H](N)C(=O)O [valine]	1.34	1.47
NCCCC[C@H](N)C(=O)O [lysine]	77.5	741
C=CC(N)CCC(=O)O (centres unmarked) [vigabatrin, reference compound]	5430	
CN1CCc2cc3c(cc2[C@H]1[C@@H]1OC(=O)c2c1ccc1c2OCO1)OCO3 [bicuculline, reference compound]		9000
C[C@H](N)C(=O)O [alanine]	1710	582
CC[C@H](C)[C@H](N)C(=O)O [isoleucine]	2.45	111
NCc1cc(=O)[nH]o1 [muscimol, reference compound]	5.81	2.62
C[C@@H](O)[C@H](N)C(=O)O [threonine]	19.9	9000
N=C(N)NCCC[C@H](N)C(=O)O [arginine]	59	3.35
NCCc1c[nH]cn1 [histamine]		9000
CSCC[C@H](N)C(=O)O [methionine]	0.419	9000
N[C@@H](Cc1ccccc1)C(=O)O [phenylalanine]	3.71	1150
N[C@@H](CC(=O)O)C(=O)O [aspartate]	2.39	0.526
Cc1ccsc1C(=CCCN1CCC[C@@H](C(=O)O)C1)c1sccc1C [tiagabine, reference compound]		2230
N[C@@H](Cc1c[nH]c2ccccc12)C(=O)O [tryptophan]		0.396
NCC(CC(=O)O)c1ccc(Cl)cc1 (centres unmarked) [baclofen, reference compound]	7380	6.3
NC(=O)C[C@H](N)C(=O)O [asparagine]	8490	5500
O=C(O)[C@@H]1CCCN1 [proline]		2490
